Values joined by “and” are separate entries in the source; they are usually repeats but may differ in a detail not shown here. Equal entries are not always repeated.
Legend:
[1] = Parallel artificial membrane permeability assay (PAMPA); assay type: in vitro ADME
Description: Compound Papp values were determined by normalizing the experimental compound absorbance to the compounds’ absorbances at equilibrium, membrane porosity, buffer volume, and time (s). Two or more replicate assays were obtained on separate days for each pH.

[2] = test system: HBV replication (HBV plus-polarity DNA strand); assay: HBV replication inhibition, strand preferential qPCR in hepDES19 cells; assay type: cell-based, hepatitis B virus; details: for EC50: 72 h exposure, HBV plus-polarity strand suppression, highest concentration tested 100 µM, mean ± SD, read-out: HepDES19 EC50
Description: HBV replication inhibition was measured in hepDES19 cells following 72 h compound exposure without compound replenishment. EC50 values were determined by HBV plus-polarity strand suppression using a strand preferential qPCR assay, as described previously ([28]). Three or more replicate values were obtained on different days.

[3] = test system: plasma proteins; assay: Plasma protein binding, rapid equilibrium dialysis; assay type: in vitro ADME, bovine; details: 10 µM compound, DMEM-F12 with 10% FBS (0.25 mg/mL BSA), 4 h, 37°C
Description: Plasma protein binding was performed using the Pierce rapid equilibrium dialysis device (Thermo Fisher) per the manufacturer’s instructions, as described ([27]). Briefly, the sample wells contained DMEM-F12 supplemented with 10% FBS spiked with 10 µM compound, and the buffer wells contained phosphate-buffered saline (PBS). The plate was incubated for 4 h at 37°C with shaking, after which 50 µL was retrieved from the buffer and sample wells and added to ice-cold acetonitrile and the internal standard described above. Samples were matrix-matched with PBS supplemented with 10% FBS or PBS alone, respectively, and centrifuged at 4,000 × g for 5 min to pellet plasma proteins. The supernatants were analyzed by LCMS/MS and percent compound bound was determined, as described previously ([27]).

[4] = test system: HepDES19 cells; details: read-out: HepDES19 CC50; 72 h, MTS; highest concentration tested 100 µM; mean ± SD
[5] = test system: MDCK-MDR1 cells; assay: MDCK-MDR1 permeability assay; assay type: in vitro ADME; details: 10 µM compound, 2 h; for Efflux Ratio (Papp B-A/A-B): MDCK-MDR1 cells, actively effluxed if >2
Description: MDCK-MDR1 cells were seeded on 96-well, high protein binding immobilon-P membrane plates (Millipore Sigma) at 2.4 × 10^4 cells per well for 4 days. Media were then decanted, and the cells were equilibrated with Hanks balanced salt solution (HBSS) supplemented with 10 mM CaCl2 and 1 mM MgCl2 for 1 h. Compound (10 µM) was then added to the apical side to assess active transport and to the basolateral side to assess active efflux. The cells were incubated with compound for 2 h with shaking at 37°C. Samples (50 µL) were retrieved from the recipient wells and mixed with 150 µL acetonitrile (ACN) and internal standard (1:1 of 200 ng/mL chloridazon:enalapril). Samples were pelleted at 4,000 × g and the supernatant was analyzed by liquid-chromatography/tandem mass spectrometry (LCMS/MS) analyses. […]. Active efflux was determined by Papp B/A/Papp A/B.
Tight junction formation was assessed by lucifer yellow permeation immediately following sample retrieval. Briefly, lucifer yellow (10 µM) was added to the apical wells and HBSS was added to the basolateral wells for 1 h with shaking at 37°C, after which sample was collected from the basolateral side and read on a Biotek Synergy HTX multi-mode plate reader with 485/20 excitation and 520/20 emission filters defined by the Center Wavelength/band-pass values. The percent lucifer yellow fluorescence was determined by subtracting the HBSS relative fluorescent units (RFU) from the sample RFU and normalizing to the lucifer yellow positive control RFU. Lucifer yellow permeation was determined to be acceptable if ≤3%.

[6] = Solubility limit, turbidimetric assay; assay type: physicochemical; details: upper limit 200 µM
Description: Solubility limits were determined by a turbidimetric assay, as described ([27]), with the solubility limit being defined as the compound concentration where light scattering began to rise. Two or more replicate assays were performed for each compound at each pH on different days.

[7] = Microsome stability; assay type: in vitro ADME, human
[8] = biological target: T1, human ribonuclease H1 (huRNase H1) (Homo sapiens, UniProt O60930); assay: Human RNase H1 inhibition, fluorescent biochemical assay
T1 construct: made in house; host or cells: Escherichia coli
T1 sequence (O60930 1-286): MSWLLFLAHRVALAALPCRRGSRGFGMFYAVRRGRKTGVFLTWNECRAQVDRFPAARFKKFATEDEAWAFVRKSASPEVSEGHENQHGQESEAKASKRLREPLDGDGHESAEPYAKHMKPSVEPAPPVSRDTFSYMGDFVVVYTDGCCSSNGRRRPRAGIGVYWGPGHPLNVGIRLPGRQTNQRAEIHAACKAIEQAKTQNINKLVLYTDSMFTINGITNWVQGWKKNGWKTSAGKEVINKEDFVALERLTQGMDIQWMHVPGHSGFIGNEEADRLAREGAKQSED
Description: Recombinant human ribonuclease H1 (huRNase H1) was expressed in Escherichia coli and purified by nickel affinity chromatography, as described previously ([30]). […] The heteroduplex substrate was prepared, as described by Ponzar et al. ([30]). Reactions were initiated by the addition of MgCl2 (5 mM final) and were performed on a Biotek Synergy HTX multi-mode plate reader at 28°C.
Maximum rates of fluorescence increase were calculated using the Biotek Gen5 v3.15 software and percentage activity was determined for each compound concentration by subtracting rates from no enzyme reactions and normalizing to DMSO reactions. […] Reactions were performed at least three times on separate days.

[9] = test system: CYP3A4 mRNA expression; assay: CYP3A4 induction, RT-qPCR in HepG2 cells; details: 10 µM, 24 or 48 h, normalized to GAPDH and DMSO
Description: HepG2 cells were seeded on 12-well, tissue-culture-treated plates (Sarstedt) at 2.5 × 10^5 cells/well for 24 h. Cells were treated with 10 µM compound or 1% DMSO for 48 h with replenishment at 24 h. Cells were rinsed with PBS and lysed at 0, 24, and 48 h using TRI Reagent (Sigma Aldrich). […] Cellular DNA was degraded using DNase I (Invitrogen), according to the manufacturer’s instructions.
Complementary DNA (cDNA) synthesis employed the ProtoScript II First Strand cDNA Synthesis Kit (New England Biolabs) according to the manufacturer’s instructions with an additional incubation step at 25°C for 5 min. Reverse transcriptase-qPCR (RT-qPCR) was performed using a Quantstudio 5 (Thermo Fisher) in a final reaction volume of 20 µL with 4 µL cDNA template, 2× KAPA probe force master mix (Roche), 300 nM probe, and 100 nM forward and reverse primer. CYP3A4 expression was determined by normalizing the experimental sample cycle threshold values to DMSO-treated wells. GAPDH was used as a housekeeping gene.

[10] = biological target: T2, CYP3A4 (Homo sapiens, UniProt P08684); assay: Cytochrome P450 inhibition, Vivid 3A4 DBOMF Green kit; assay type: in vitro ADME; details: 10 µM compound
T2 construct: purchased Thermo Fisher Vivid 3A4 DBOMF Green
T2 sequence (P08684 whole entry): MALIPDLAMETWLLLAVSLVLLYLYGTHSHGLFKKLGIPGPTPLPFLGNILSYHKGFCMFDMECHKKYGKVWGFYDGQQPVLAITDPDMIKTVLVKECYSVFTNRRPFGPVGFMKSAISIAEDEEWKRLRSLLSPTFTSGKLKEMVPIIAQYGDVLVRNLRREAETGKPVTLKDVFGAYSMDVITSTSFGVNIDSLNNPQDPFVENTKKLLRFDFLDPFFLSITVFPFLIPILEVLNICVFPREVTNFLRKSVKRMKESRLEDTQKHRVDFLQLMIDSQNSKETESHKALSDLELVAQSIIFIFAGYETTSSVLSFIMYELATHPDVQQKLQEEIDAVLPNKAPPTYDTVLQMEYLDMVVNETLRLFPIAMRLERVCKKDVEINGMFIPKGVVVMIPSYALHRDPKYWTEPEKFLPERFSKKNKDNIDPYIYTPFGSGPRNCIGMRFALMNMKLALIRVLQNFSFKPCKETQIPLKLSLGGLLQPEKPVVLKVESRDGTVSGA
Description: (§1) Compound inhibition of Cytochrome P (CYP) 3A4, 2C9, and 2D6 was determined using Vivid CYP450 screening kits (Thermo Fisher) according to the manufacturer’s instructions, as described previously ([27]). The kits employed were: Vivid 3A4 DBOMF Green, 2C9 BOMF Green, and 2D6 EOMCC Blue. Reactions were initiated by addition of the fluorophore-conjugated substrates with Vivid NADP^+ and were conducted at 37°C using either a Biotek Synergy HTX multi-mode plate reader with 485/20 nm excitation and 520/20 nm emission filters (green-fluorescent substrate), or a Tecan Spark plate reader with monochromator settings at 415/20 nm excitation and 460/20 nm emission (blue-fluorescent substrate) defined by the Center Wavelength/band-pass values. Substrate cleavage was detected every 60 s.
(§2) Compounds were initially screened against each enzyme at 10 µM and maximum rates of fluorescence in RFU were calculated using the Biotek Gen5 v3.11 software. Percent inhibition of experimental compound reactions was normalized to the rate to DMSO vehicle reactions. Positive controls used were: CYP3A4—ketoconazole (Sigma Aldrich), CYP2C9—sulfaphenazole (Cayman Chemical), and CYP2D6—quinidine (Fisher Scientific). […] IC50 values were determined using the four-parameter log[inhibitor] versus response algorithm in GraphPad Prism. […]

[11] = biological target: T3, CYP2C9 (Homo sapiens, UniProt P11712); assay: Cytochrome P450 inhibition, Vivid 2C9 BOMF Green kit; assay type: in vitro ADME; details: 10 µM compound
T3 construct: purchased Thermo Fisher Vivid 2C9 BOMF Green
T3 sequence (P11712 whole entry): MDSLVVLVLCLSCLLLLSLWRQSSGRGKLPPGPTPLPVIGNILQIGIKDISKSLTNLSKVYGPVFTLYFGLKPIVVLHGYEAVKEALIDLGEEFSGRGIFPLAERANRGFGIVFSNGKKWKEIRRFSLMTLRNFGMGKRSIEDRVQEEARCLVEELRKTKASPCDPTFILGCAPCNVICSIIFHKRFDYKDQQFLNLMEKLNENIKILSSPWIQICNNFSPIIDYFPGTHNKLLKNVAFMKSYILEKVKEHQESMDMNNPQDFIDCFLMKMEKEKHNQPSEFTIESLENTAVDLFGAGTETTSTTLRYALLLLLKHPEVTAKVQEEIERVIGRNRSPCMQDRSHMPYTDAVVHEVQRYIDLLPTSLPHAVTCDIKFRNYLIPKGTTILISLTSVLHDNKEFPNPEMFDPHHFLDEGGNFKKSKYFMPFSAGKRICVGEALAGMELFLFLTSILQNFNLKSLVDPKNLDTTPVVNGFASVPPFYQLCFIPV
Description: as §1, §2

[12] = pH 5 (fed simulated intestinal fluid)
[13] = pH 6.5 (fasted simulated intestinal fluid)
[14] = human liver microsomes, 1 µM compound, 30 min, NADPH

Structure (SMILES) | Avg Papp (PAMPA) ([1]; FeSSIF pH 5) | Interpretation (PAMPA Papp) ([1]; FeSSIF pH 5) | Papp 1 (PAMPA) ([1]; FeSSIF pH 5, replicate 1) | Papp 2 (PAMPA) ([1]; FeSSIF pH 5, replicate 2) | Avg Papp (PAMPA) ([1]; pH 7.4) | Interpretation (PAMPA Papp) ([1]; pH 7.4) | Papp 2 (PAMPA) ([1]; pH 7.4, replicate 2) | HepDES19 SI (CC50/EC50) [2] | EC50 [2] | CC50 [4] | Efflux Ratio (Papp B-A/A-B) [5] | Average Sol (solubility limit) [6, 12] | Sol 1 (solubility limit) ([6]; pH 5, replicate 1) | Sol 2 (solubility limit) ([6]; pH 5, replicate 2) | Average Sol (solubility limit) [6, 13] | Sol 1 (solubility limit) ([6]; pH 6.5, replicate 1) | Sol 2 (solubility limit) ([6]; pH 6.5, replicate 2) | Average Sol (solubility limit) ([6]; pH 7.4 (DMEM-F12 with 10% FBS)) | Sol 1 (solubility limit) ([6]; pH 7.4, replicate 1) | Sol 2 (solubility limit) ([6]; pH 7.4, replicate 2) | further results
CC(=NOCc1cccc(C)c1)c1c(C)cc(=O)n(O)c1O [Compound 1620] | 18.9 ×10⁻⁶ cm/s | H (H: Papp > 1*10-6) | 22.9 ×10⁻⁶ cm/s | 14.9 ×10⁻⁶ cm/s | 1.38 ×10⁻⁶ cm/s | H (H: Papp > 1*10-6) | 1.38 ×10⁻⁶ cm/s | 526 | 190 ± 87 nM | > 100000 nM | 1.39 | > 200 µM | > 200 µM | > 200 µM | > 200 µM | > 200 µM | > 200 µM | > 200 µM | > 200 µM | > 200 µM | Papp 1 (PAMPA) ([1]; pH 7.4, replicate 1): 1.38 ×10⁻⁶ cm/s; Percent bound [3]: 85.8 ± 13.2%; MDCK-MDR1 Papp category, apical to basolateral (A-B) [5]: high (high (≥1*10^−6 cm/s)); MDCK-MDR1 Papp category, basolateral to apical (B-A) [5]: high (high (≥1*10^−6 cm/s)); Intrinsic clearance (Clint) rate category ([7]; human liver microsomes): low (low Clint (µL/min/mg protein) rates (<8.6)); Clearance (intrinsic clearance, Clint) [7, 14]: 7.00 µL/min/mg; Half-life [7, 14]: >30 min; Selectivity of HBV replication inhibition over huRNase H1 (huRNase H1 IC50 versus HBV EC50) [8]: at least 10 fold; CYP3A4 mRNA expression increase [9]: < 2 fold
CC(=NOCc1ccc(OCc2ccc3ccccc3c2)cc1)c1c(C)cc(=O)n(O)c1O [Compound 1899] | 5.61 ×10⁻⁶ cm/s | H (H: Papp > 1*10-6) | 6.93 ×10⁻⁶ cm/s | 4.29 ×10⁻⁶ cm/s | 1.84 ×10⁻⁶ cm/s | H (H: Papp > 1*10-6) | 1.08 ×10⁻⁶ cm/s | 40.7 | 1920 ± 700 nM | 68600 ± 24300 nM | 2.28 and > 2 | > 200 µM | > 200 µM | > 200 µM | > 200 µM | > 200 µM | > 200 µM | > 200 µM | > 200 µM | > 200 µM | Papp 1 (PAMPA) ([1]; PAMPA, pH 7.4): 2.28 ×10⁻⁶ cm/s; Papp 3 (PAMPA) ([1]; pH 7.4, replicate 3): 2.16 ×10⁻⁶ cm/s; Percent inhibition of CYP3A4 [10]: ~ 42%; Clearance (intrinsic clearance, Clint) ([7]; human, microsomes): 35.6 µL/min/mg; Half-life ([7]; human, microsomes): 29.6 min; Percent inhibition of CYP2C9 [11]: 46%
